# How the values were obtained:
# Format in all cases: cell-based
# [1] = test system: E.coli; test: Quantitative germ count (re-isolation, surface method) after inoculating the test preparation; settings: Ausgangskeimzahl 2,7 x 10^5 KBE/ml
# Description: (§1) Escherichia (E.coli) Staphylococcus (S.aureus) Streptococcus (Sc.) Pneumoniae Pseudomonas (P.aeruginosa) Staphylococcus (S. epidermidis) Haemophilus (H. influenzae)
# (§2) Die verschiedenen Testkeime wurde jeweils aus einem Lyophilisat in NaCl-Peptonpuffer homogenisiert und auf Caseinpepton-Sojymehlpepton. (Caso-) Agar (Fa. bioMérieux; Art. Nr. 43019) bez. Kochblut-Agar (Fa. bioMérieux; Art. Nr. 43109) subkultiviert. Die Teststämme wurden vor Versuchsbeginn durch Erstellen eines biochemischen Profils mittels ATB/Vitek-System (Fa. bioMérieux, Nürtingen) auf Reinheit und Identität überprüft.
# (§3) Die Ausgangskeimzahl wurde im Oberflächenverfahren mit Hilfe eines Spiralplaters (Fa. Meintrup, Lähden) ermittelt und ist im einzelnen den Tabellen 1-12 zu entnehmen.
# (§4) Die verschiedenen Testsubstanzen a. bis j. wurden jeweils zu 5 ml in sterile Zentrifugenröhrchen abgefüllt und mit ca. 10^5 KBE^*/ml (* = koloniebildende Einheiten) der oben genannten Testkeime kontaminiert. Pro Substanz wurde für jeden Testkeim und jede zu prüfende Testzeit ein separater Ansatz angeimpft, d.h.10 Testsubstanzen zu jeweils 7 Testzeiten und 6 Testkeime (= insgesamt 502 Testansätze). […] Der Überstand wurde dekantiert und das Pellet in 5 ml NaCl Peptonpuffer aufgenommen und resuspendiert. Die Suspension wurde erneut 10 Minuten bei 3000 rpm abzentrifugiert und 5 ml NaCl-Peptonpuffer aufgenommen und mittels Vortex homogenisiert.
# (§5) Die anschließende Keimzahlbestimmung erfolgte im Oberflächenverfahren durch Ausspiralisieren eines […] Aliquots auf Caso-Agar bzw. für H. influenzae auf Kochblut-Agar. Die Platten wurden bei 33±2°C für max. 4 Tage bebrütet. Die Nachweisgrenze des Verfahrens liegt bei 100 KBE/ml.
# [2] = test system: H.influenzae; test: as above; settings: Ausgangskeimzahl 2,8 x 10^5 KBE/ml
# Description: as §1, §2, §3, §4, §5
# [3] = test system: S.aureus; test: as above; settings: Ausgangskeimzahl 2,6 x 10^5 KBE/ml
# Description: as §1, §2, §3, §4, §5
# [4] = test system: Sc. pneumoniae; test: as above; settings: Ausgangskeimzahl 3,7 x 10^5 KBE/ml
# Description: as §1, §2, §3, §4, §5
# [5] = test system: P.aeruginosa; test: as above; settings: Ausgangskeimzahl 2,7 x 10^5 KBE/ml
# Description: as §1, §2, §3
# (§6) Die verschiedenen Testsubstanzen a. bis j. wurden jeweils zu 5 ml in sterile Zentrifugenröhrchen abgefüllt und mit ca. 10^5 KBE^*/ml (* = koloniebildende Einheiten) der oben genannten Testkeime kontaminiert. Pro Substanz wurde für jeden Testkeim und jede zu prüfende Testzeit ein separater Ansatz angeimpft, d.h.10 Testsubstanzen zu jeweils 7 Testzeiten und 6 Testkeime (= insgesamt 502 Testansätze). Nach 2, 6, 8, 24, 32, 48 und 72 Stunden wurde dann der jeweilige Testansatz 10 Minuten bei 3000 rpm abzentrifugiert. Der Überstand wurde dekantiert und das Pellet in 5 ml NaCl Peptonpuffer aufgenommen und resuspendiert. Die Suspension wurde erneut 10 Minuten bei 3000 rpm abzentrifugiert und 5 ml NaCl-Peptonpuffer aufgenommen und mittels Vortex homogenisiert.
# as §5
# [6] = test system: E.coli; test: Qualitative examination: enrichment of the inoculated test preparation in broth
# Description: as §1, §2, §4
# (§7) Jeweils 2 ml der Testansätze wurden in 20 ml Caso-Bouillon oder für H. influenzae, in Fildes-Medium der Firma Becton Dickinson, ARt. Nr. 0349-739, angereichert und ebenfalls maximal 4 Tage bei 33± 2°C bebrütet. Ein negatives Ergebnis der Anreicherung belegt die Elimination der inokulierten Keime.
# [7] = test system: S.aureus; test: as above
# Description: as §1, §2, §4, §7
# [8] = test system: S.epidermidis; test: as above
# Description: as §1, §2, §4, §7
# [9] = test system: Sc. pneumoniae; test: as above
# Description: as §1, §2, §4, §7
# [10] = test system: H.influenzae; test: as above
# Description: as §1, §2, §6, §7
# [11] = test system: P.aeruginosa; test: as above
# Description: as §1, §2, §6, §7
substance,measurement,setting,value
"Benzalkoniumchlorid [Benzalkoniumchlorid 0,001 Gew.-%]",Ergebnis der Reisolierung (in KBE/ml),[1]; 2 h after inoculation,<100 KBE/ml
same,Ergebnis der Reisolierung (in KBE/ml),[1]; 4 h after inoculation,<100 KBE/ml
same,Ergebnis der Reisolierung (in KBE/ml),[1]; 6 h after inoculation,<100 KBE/ml
same,Ergebnis der Reisolierung (in KBE/ml),[1]; 8 h after inoculation,<100 KBE/ml
same,Ergebnis der Reisolierung (in KBE/ml),[1]; 24 h after inoculation,<100 KBE/ml
same,Ergebnis der Reisolierung (in KBE/ml),[1]; 32 h after inoculation,<100 KBE/ml
same,Ergebnis der Reisolierung (in KBE/ml),[1]; 48 h after inoculation,<100 KBE/ml
same,Ergebnis der Reisolierung (in KBE/ml),[1]; 72 h after inoculation,<100 KBE/ml
same,Ergebnis der Reisolierung (in KBE/ml),[2]; 2 h after inoculation,<100 KBE/ml
same,Ergebnis der Reisolierung (in KBE/ml),[2]; 4 h after inoculation,<100 KBE/ml
same,Ergebnis der Reisolierung (in KBE/ml),[2]; 6 h after inoculation,<100 KBE/ml
same,Ergebnis der Reisolierung (in KBE/ml),[2]; 8 h after inoculation,<100 KBE/ml
same,Ergebnis der Reisolierung (in KBE/ml),[2]; 24 h after inoculation,<100 KBE/ml
same,Ergebnis der Reisolierung (in KBE/ml),[2]; 32 h after inoculation,<100 KBE/ml
same,Ergebnis der Reisolierung (in KBE/ml),[2]; 48 h after inoculation,<100 KBE/ml
same,Ergebnis der Reisolierung (in KBE/ml),[2]; 72 h after inoculation,<100 KBE/ml
same,Ergebnis der Reisolierung (in KBE/ml),[3]; 2 h after inoculation,<100 KBE/ml
same,Ergebnis der Reisolierung (in KBE/ml),[3]; 4 h after inoculation,<100 KBE/ml
same,Ergebnis der Reisolierung (in KBE/ml),[3]; 6 h after inoculation,<100 KBE/ml
same,Ergebnis der Reisolierung (in KBE/ml),[3]; 8 h after inoculation,<100 KBE/ml
same,Ergebnis der Reisolierung (in KBE/ml),[3]; 24 h after inoculation,<100 KBE/ml
same,Ergebnis der Reisolierung (in KBE/ml),[3]; 32 h after inoculation,<100 KBE/ml
same,Ergebnis der Reisolierung (in KBE/ml),[3]; 48 h after inoculation,<100 KBE/ml
same,Ergebnis der Reisolierung (in KBE/ml),[3]; 72 h after inoculation,<100 KBE/ml
same,Ergebnis der Reisolierung (in KBE/ml),[4]; 2 h after inoculation,<100 KBE/ml
same,Ergebnis der Reisolierung (in KBE/ml),[4]; 4 h after inoculation,<100 KBE/ml
same,Ergebnis der Reisolierung (in KBE/ml),[4]; 6 h after inoculation,<100 KBE/ml
same,Ergebnis der Reisolierung (in KBE/ml),[4]; 8 h after inoculation,<100 KBE/ml
same,Ergebnis der Reisolierung (in KBE/ml),[4]; 24 h after inoculation,<100 KBE/ml
same,Ergebnis der Reisolierung (in KBE/ml),[4]; 32 h after inoculation,<100 KBE/ml
same,Ergebnis der Reisolierung (in KBE/ml),[4]; 48 h after inoculation,<100 KBE/ml
same,Ergebnis der Reisolierung (in KBE/ml),[4]; 72 h after inoculation,<100 KBE/ml
same,Ergebnis der Reisolierung (in KBE/ml),[5]; 2 h after inoculation,<100 KBE/ml
same,Ergebnis der Reisolierung (in KBE/ml),[5]; 4 h after inoculation,<100 KBE/ml
same,Ergebnis der Reisolierung (in KBE/ml),[5]; 6 h after inoculation,<100 KBE/ml
same,Ergebnis der Reisolierung (in KBE/ml),[5]; 8 h after inoculation,<100 KBE/ml
same,Ergebnis der Reisolierung (in KBE/ml),[5]; 24 h after inoculation,<100 KBE/ml
same,Ergebnis der Reisolierung (in KBE/ml),[5]; 32 h after inoculation,<100 KBE/ml
same,Ergebnis der Reisolierung (in KBE/ml),[5]; 48 h after inoculation,<100 KBE/ml
same,Ergebnis der Reisolierung (in KBE/ml),[5]; 72 h after inoculation,<100 KBE/ml
same,Ergebnis der Reisolierung qualitiativ (+/-) nach Anreicherung,[6]; 2 h after inoculation,-
same,Ergebnis der Reisolierung qualitiativ (+/-) nach Anreicherung,[6]; 4 h after inoculation,-
same,Ergebnis der Reisolierung qualitiativ (+/-) nach Anreicherung,[6]; 6 h after inoculation,-
same,Ergebnis der Reisolierung qualitiativ (+/-) nach Anreicherung,[6]; 8 h after inoculation,-
same,Ergebnis der Reisolierung qualitiativ (+/-) nach Anreicherung,[6]; 24 h after inoculation,-
same,Ergebnis der Reisolierung qualitiativ (+/-) nach Anreicherung,[6]; 32 h after inoculation,-
same,Ergebnis der Reisolierung qualitiativ (+/-) nach Anreicherung,[6]; 48 h after inoculation,-
same,Ergebnis der Reisolierung qualitiativ (+/-) nach Anreicherung,[6]; 72 h after inoculation,-
same,Ergebnis der Reisolierung qualitiativ (+/-) nach Anreicherung,[7]; 2 h after inoculation,-
same,Ergebnis der Reisolierung qualitiativ (+/-) nach Anreicherung,[7]; 4 h after inoculation,-
same,Ergebnis der Reisolierung qualitiativ (+/-) nach Anreicherung,[7]; 6 h after inoculation,-
same,Ergebnis der Reisolierung qualitiativ (+/-) nach Anreicherung,[7]; 8 h after inoculation,-
same,Ergebnis der Reisolierung qualitiativ (+/-) nach Anreicherung,[7]; 24 h after inoculation,-
same,Ergebnis der Reisolierung qualitiativ (+/-) nach Anreicherung,[7]; 32 h after inoculation,-
same,Ergebnis der Reisolierung qualitiativ (+/-) nach Anreicherung,[7]; 48 h after inoculation,-
same,Ergebnis der Reisolierung qualitiativ (+/-) nach Anreicherung,[7]; 72 h after inoculation,-
same,Ergebnis der Reisolierung qualitiativ (+/-) nach Anreicherung,[8]; 2 h after inoculation,-
same,Ergebnis der Reisolierung qualitiativ (+/-) nach Anreicherung,[8]; 4 h after inoculation,-
same,Ergebnis der Reisolierung qualitiativ (+/-) nach Anreicherung,[8]; 6 h after inoculation,-
same,Ergebnis der Reisolierung qualitiativ (+/-) nach Anreicherung,[8]; 8 h after inoculation,-
same,Ergebnis der Reisolierung qualitiativ (+/-) nach Anreicherung,[8]; 24 h after inoculation,-
same,Ergebnis der Reisolierung qualitiativ (+/-) nach Anreicherung,[8]; 32 h after inoculation,-
same,Ergebnis der Reisolierung qualitiativ (+/-) nach Anreicherung,[8]; 48 h after inoculation,-
same,Ergebnis der Reisolierung qualitiativ (+/-) nach Anreicherung,[8]; 72 h after inoculation,-
same,Ergebnis der Reisolierung qualitiativ (+/-) nach Anreicherung,[9]; 2 h after inoculation,-
same,Ergebnis der Reisolierung qualitiativ (+/-) nach Anreicherung,[9]; 4 h after inoculation,-
same,Ergebnis der Reisolierung qualitiativ (+/-) nach Anreicherung,[9]; 6 h after inoculation,-
same,Ergebnis der Reisolierung qualitiativ (+/-) nach Anreicherung,[9]; 8 h after inoculation,-
same,Ergebnis der Reisolierung qualitiativ (+/-) nach Anreicherung,[9]; 24 h after inoculation,-
same,Ergebnis der Reisolierung qualitiativ (+/-) nach Anreicherung,[9]; 32 h after inoculation,-
same,Ergebnis der Reisolierung qualitiativ (+/-) nach Anreicherung,[9]; 48 h after inoculation,-
same,Ergebnis der Reisolierung qualitiativ (+/-) nach Anreicherung,[9]; 72 h after inoculation,-
same,Ergebnis der Reisolierung qualitiativ (+/-) nach Anreicherung,[10]; 2 h after inoculation,-
same,Ergebnis der Reisolierung qualitiativ (+/-) nach Anreicherung,[10]; 4 h after inoculation,-
same,Ergebnis der Reisolierung qualitiativ (+/-) nach Anreicherung,[10]; 6 h after inoculation,-
same,Ergebnis der Reisolierung qualitiativ (+/-) nach Anreicherung,[10]; 8 h after inoculation,-
same,Ergebnis der Reisolierung qualitiativ (+/-) nach Anreicherung,[10]; 24 h after inoculation,-
same,Ergebnis der Reisolierung qualitiativ (+/-) nach Anreicherung,[10]; 32 h after inoculation,-
same,Ergebnis der Reisolierung qualitiativ (+/-) nach Anreicherung,[10]; 48 h after inoculation,-
same,Ergebnis der Reisolierung qualitiativ (+/-) nach Anreicherung,[10]; 72 h after inoculation,-
same,Ergebnis der Reisolierung qualitiativ (+/-) nach Anreicherung,[11]; 2 h after inoculation,-
same,Ergebnis der Reisolierung qualitiativ (+/-) nach Anreicherung,[11]; 4 h after inoculation,-
same,Ergebnis der Reisolierung qualitiativ (+/-) nach Anreicherung,[11]; 6 h after inoculation,-
same,Ergebnis der Reisolierung qualitiativ (+/-) nach Anreicherung,[11]; 8 h after inoculation,-
same,Ergebnis der Reisolierung qualitiativ (+/-) nach Anreicherung,[11]; 24 h after inoculation,-
same,Ergebnis der Reisolierung qualitiativ (+/-) nach Anreicherung,[11]; 32 h after inoculation,-
same,Ergebnis der Reisolierung qualitiativ (+/-) nach Anreicherung,[11]; 48 h after inoculation,-
same,Ergebnis der Reisolierung qualitiativ (+/-) nach Anreicherung,[11]; 72 h after inoculation,-

# Source: patent publication EP1171107B1, “USE OF A PHARMACEUTICAL COMPOSITION IN THE MANUFACTURE OF A MEDICAMENT FOR THE TREATMENT OF PATHOLOGICAL CONDITIONS OF THE EYE CAUSED BY BACTERIA, VIRUSES, FUNGI, YEASTS AND PROTOZOA” (Dr. GERHARD MANN chem.-pharm. Fabrik GmbH, priority 1999, dated 2000)
